Source: patent US12583870B2, “Azaheteroaryl compound and application thereof” (SHANGHAI BLUERAY BIOPHARMA CO., LTD., priority 2019, dated 2026)

Columns and labels:
[1] = test system: trimethylation level of histone H3K27 in G401 cells; assay: ELISA (H3K27 trimethylation) analysis in G401 cells; format: cell-based; settings: Homo sapiens, G-401, 72 hours, H3K27me3 standardized to H3
Experimental: 3-fold series dilution with DMSO was carried out on the representative compounds of the present disclosure; and 10 concentration gradients were detected for each compound, with the highest detection concentration of 10 μM. The compounds were diluted 200-fold into the G401 cells cultured in a 96-well plate (DMSO at a final concentration of 0.5%). After the cells, administered with the compound, were cultured for 72 hours, the trimethylation level of the histone H3K27 was detected using the ELISA method.
Extraction of the histone: in a 96-well plate, the compound-treated cells were washed three times with 1×PBS (10×PBS buffer (80 g NaCl (Sigma, product number S3014), 2 g KCl (Sigma, product number 60128), 14.4 g Na2HPO4 (Sigma, product number S5136), and 2.4 g KH2PO4 (Sigma, product number P9791) in 1 L of water, adjusting the pH to 7.4)). 100 μL of 0.4 N HCl was added into each well. The plate was placed at 4° C. and gently agitated for 2 hours to lyse the cells. The cell lysate was then neutralized with 80 μL of neutralization buffer (0.5 M disodium hydrogen phosphate, pH 12.5, 2.5 mM DTT; 1% cocktail (Sigma, product number P8340)) (the cell lysate and the neutralization buffer were thoroughly mixed to uniformity).
ELISA detection method: the cell lysate was transferred in parallel to two 384-well detection plates (PerkinElmer, OptiPlate-384HB, product number 6007290), wherein one of the plates was used to detect the H3K27 trimethylation level and the other plate was used to determine the level of H3. PBS was used to adjust the final volume to 50 μL/well. The plates were coated at 4° C. overnight. On the following day, the solution inside the wells was discarded and the plates were washed 5 times with TBST buffer (1×TBS (10×TBS: 24.2 g Tris (Sigma, product number T6066), 80 g NaCl (Sigma, product number S3014) in 1 L of water, adjusting the pH with HCl to 7.6), 0.1% Tween-20) and dried on an absorbent paper by inversion. 70 μL of blocking buffer (TBST, 5% BSA) was added into the coated reaction wells and the plates were incubated at room temperature for 1 hour. The blocking buffer was discarded and primary antibodies were added (30 μL/well). The desired primary antibodies were all diluted with a blocking buffer and the dilution factor was as follows: anti-H3K27me3 antibody (Cell Signaling Technology, product number 9733), 1:2000 dilution; anti-H3 antibody (Cell Signaling Technology, product number 4499), 1:10000 dilution. After the primary antibodies were added, the plates were placed at room temperature and incubated for 1 hour. After the plates were washed with TBST 5 times, the plates were dried by inversion. A secondary antibody (30 μL/well) was added to each of the reaction wells and the plates were incubated at room temperature for 1 hour. The secondary antibody (anti-rabbit antibody (Jackson ImmunoResearch, product number 111-035-003)) was diluted 2000-fold with a blocking buffer before use. After 1 hour, the plates were washed with TBST and dried by inversion. 30 μL of ECL substrate (Pierce, product number 34080) was added into each well and centrifuged at 2000 rpm for 30 seconds. The signal of each sample was detected using SpectraMax (Molecular Devices). Data processing: H3K27 methylation readings were first standardlized using H3 signals and 0.5% DMSO-treated samples was used as the control to calculate the inhibition percentage of the compounds. Data were fit to obtain Dose-Response curves using the GraphPad prism 5 program and the IC50 values of the test compounds were obtained.

[2] = test system: KARPAS-422 cells; assay: Cell proliferation analysis, KARPAS-422, 13 days, CellTiter-Glo; format: cell-based; settings: Homo sapiens, 312 h
Experimental: Human B-cell non-Hodgkin lymphoma cells, KARPAS-422 S, were cultured in a culture flask using standard cell culture conditions. The medium contained 15% fetal bovine serum (FBS, Invitrogen, product number 10099-141) and 1% penicillin/streptomycin solution (P/S) RPMI-1640 (Invitrogen, product number 11875), and the culture flask was placed and cultured in a sterile incubator at the temperature of 37° C. and […] with a relative humidity of […] To detect the effect of PRC2 inhibitors on cell proliferation, cells in exponential growth phase were taken and seeded into a 96-well plate (Corning, product number 3904) at a density of 1×10^4 cells/well, and 100 μL of the medium was added into each well. Subsequently, the compounds at different concentrations disclosed in the present disclosure were added into the wells where cells had already been seeded (9 concentration gradients were provided for each compound, with the highest detection concentration at 10 μM, 3-fold gradient dilution) and two replicates in parallel were provided for each treatment concentration. DMSO was at a final concentration of 0.5%. Afterwards, viable cell numbers were determined using Vi-CELL (Beckman Coulter) every 3-4 days. Cells counted were seeded into a new 96-well plate at the same density (1×10^4 cells/well) each time. The wells were supplemented with a fresh medium to 100 μL and at the same time, compounds at different concentrations were added. The cells were cultured to day 13. 100 μL of CellTiter-Glo (CellTiter-GloCellTiter-GloCellTiter-GloCTG) (Promega, product number G7573) was added into each well. The plate was placed in the dark at room temperature for 10-20 minutes and the luminescence signal was read using SpectraMax i3× (Molecular Devices).

IC50 [1]	IC50 [2]	Compound
0.0023 µM	0.0028 µM	Cc1ccc(-c2cnc(NCc3c(F)ccc4c3CCO4)n3cnnc23)c2nc(C(=O)N(C)C)cn12 [8-(5-(((5-fluoro-2,3-dihydrobenzofuran-4-yl)methyl)amino)-[1,2,4]triazolo[4,3-c]pyrimidin-8-yl)-N,N,5-trimethylimidazo[1,2-a]pyridine-2-carboxamide]
0.0013 µM	0.0013 µM	N#Cc1cnc2c(-c3cnc(NCc4c(F)ccc5c4CCO5)n4cnnc34)ccc(N3CCOCC3)n12 [8-(5-(((5-fluoro-2,3-dihydrobenzofuran-4-yl)methyl)amino)-[1,2,4]triazolo[4,3-c]pyrimidin-8-yl)-5-morpholinoimidazo[1,2-a]pyridine-3-carbonitrile]
0.0041 µM	0.0007 µM	CN1CCN(c2ccc(-c3cnc(NCc4c(F)ccc5c4CCO5)n4cnnc34)c3ncnn23)CC1 [N-((5-fluoro-2,3-dihydrobenzofuran-4-yl)methyl)-8-(5-(4-methylpiperazin-1-yl)-[1,2,4]triazolo[1,5-a]pyridin-8-yl)-[1,2,4]triazolo[4,3-c]pyrimidin-5-amine]
0.0011 µM	0.0007 µM	Fc1ccc2c(c1CNc1ncc(-c3ccc(N4CCOCC4)n4ncnc34)c3nncn13)CCO2 [N-((5-fluoro-2,3-dihydrobenzofuran-4-yl)methyl)-8-(5-morpholino-[1,2,4]triazolo[1,5-a]pyridin-8-yl)-[1,2,4]triazolo[4,3-c]pyrimidin-5-amine]
0.0006 µM	0.0005 µM	CN(C)Cc1ccc(-c2cnc(NCc3c(F)ccc4c3CCO4)n3cnnc23)c2ncnn12 [8-(5-((dimethylamino)methyl)-[1,2,4]triazolo[1,5-a]pyridin-8-yl)-N-((5-fluoro-2,3-dihydrobenzofuran-4-yl)methyl)-[1,2,4]triazolo[4,3-c]pyrimidin-5-amine]
0.0012 µM	0.0017 µM	COc1cc(-c2cnc(NCc3c(F)ccc4c3CCO4)n3cnnc23)c2ncnn2c1 [N-((5-fluoro-2,3-dihydrobenzofuran-4-yl)methyl)-8-(6-methoxy-[1,2,4]triazolo[1,5-a]pyridin-8-yl)-[1,2,4]triazolo[4,3-c]pyrimidin-5-amine]
0.0039 µM	0.0062 µM	COc1ccc(-c2cnc(NCc3c(F)ccc4c3CCO4)n3cnnc23)c2ncc(C#N)n12 [8-(5-(((5-fluoro-2,3-dihydrobenzofuran-4-yl)methyl)amino)-[1,2,4]triazolo[4,3-c]pyrimidin-8-yl)-5-methoxyimidazo[1,2-a]pyridine-3-carbonitrile]
0.001 µM	0.0014 µM	CN(C)c1ccc(-c2cnc(NCc3c(F)ccc4c3CCO4)n3cnnc23)c2ncnn12 [8-(5-(dimethylamino)-[1,2,4]triazolo[1,5-a]pyridin-8-yl)-N-((5-fluoro-2,3-dihydrobenzofuran-4-yl)methyl)-[1,2,4]triazolo[4,3-c]pyrimidin-5-amine]
0.0024 µM	0.0011 µM	Cc1ccc(-c2cnc(NCc3c(F)ccc4c3CCO4)n3cnnc23)c2ncc(C(=O)N3CCOCC3)n12 [(8-(5-(((5-fluoro-2,3-dihydrobenzofuran-4-yl)methyl)amino)-[1,2,4]triazolo[4,3-c]pyrimidin-8-yl)-5-methylimidazo[1,2-a]pyridin-3-yl)(morpholino)methanone]
0.0024 µM	0.0032 µM	CC(=O)NCc1cnc2c(-c3cnc(NCc4c(F)ccc5c4CCO5)n4cnnc34)ccc(C)n12 [N-((8-(5-(((5-fluoro-2,3-dihydrobenzofuran-4-yl)methyl)amino)-[1,2,4]triazolo[4,3-c]pyrimidin-8-yl)-5-methylimidazo[1,2-a]pyridin-3-yl)methyl)acetamide]
0.0011 µM	0.0008 µM	Fc1ccc2c(c1CNc1ncc(-c3ccc(N4CCC(N5CCOCC5)CC4)n4ncnc34)c3nncn13)CCO2 [N-((5-fluoro-2,3-dihydrobenzofuran-4-yl)methyl)-8-(5-(4-morpholinopiperidin-1-yl)-[1,2,4]triazolo[1,5-a]pyridin-8-yl)-[1,2,4]triazolo[4,3-c]pyrimidin-5-amine]
0.0017 µM	0.0018 µM	Cc1ccc(-c2cnc(NCc3c(F)ccc4c3CCO4)n3cnnc23)c2ncnn12 [N-((5-fluoro-2,3-dihydrobenzofuran-4-yl)methyl)-8-(5-methyl-[1,2,4]triazolo[1,5-a]pyridin-8-yl)-[1,2,4]triazolo[4,3-c]pyrimidin-5-amine]
0.0022 µM	0.0021 µM	CC(C)(O)CNCc1ccc(-c2cnc(NCc3c(F)ccc4c3CCO4)n3cnnc23)c2ncnn12 [1-(((8-(5-(((5-fluoro-2,3-dihydrobenzofuran-4-yl)methyl)amino)-[1,2,4]triazolo[4,3-c]pyrimidin-8-yl)-[1,2,4]triazolo[1,5-a]pyridin-5-yl)methyl)amino)-2-methylpropan-2-ol]
0.0036 µM	0.0047 µM	Cc1c(F)cc(-c2cnc(NCc3c(F)ccc4c3CCO4)n3cnnc23)c2ncnn12 [N-((5-fluoro-2,3-dihydrobenzofuran-4-yl)methyl)-8-(6-fluoro-5-methyl-[1,2,4]triazolo[1,5-a]pyridin-8-yl)-[1,2,4]triazolo[4,3-c]pyrimidin-5-amine]
0.0012 µM	0.0009 µM	Cc1ccc(-c2cnc(NCc3c(F)ccc4c3[C@H]3C[C@H]3O4)n3cnnc23)c2nccn12 [N-(((1aR,6bR)-5-fluoro-1a,6b-dihydro-1H-cyclopropa[b]benzofuran-6-yl)methyl)-8-(5-methylimidazo[1,2-a]pyridin-8-yl)-[1,2,4]triazolo[4,3-c]pyrimidin-5-amine]
0.0042 µM	0.0045 µM	COc1cc(-c2cnc(NCc3c(F)ccc4c3CCO4)n3cnnc23)c2ncc(C#N)n2c1 [8-(5-(((5-fluoro-2,3-dihydrobenzofuran-4-yl)methyl)amino)-[1,2,4]triazolo[4,3-c]pyrimidin-8-yl)-6-methoxyimidazo[1,2-a]pyridine-3-carbonitrile]
0.0045 µM	0.0025 µM	Cc1ncc(-c2cnc(NCc3c(F)ccc4c3CCO4)n3cnnc23)c2ncnn12 [N-((5-fluoro-2,3-dihydrobenzofuran-4-yl)methyl)-8-(5-methyl-[1,2,4]triazolo[1,5-c]pyrimidin-8-yl)-[1,2,4]triazolo[4,3-c]pyrimidin-5-amine]
0.0016 µM	0.0023 µM	Fc1ccc2c(c1CNc1ncc(-c3cccc4cn[nH]c34)c3nncn13)CCO2 [N-((5-fluoro-2,3-dihydrobenzofuran-4-yl)methyl)-8-(1H-indazol-7-yl)-[1,2,4]triazolo[4,3-c]pyrimidin-5-amine]
